Calls of active or inactive are those of the source. No cut-off for these calls is given here. Residues, ends and D or L forms follow the SMILES beside them. *: point of attachment. Lauroyl = CCCCCCCCCCCC(=O)*
Columns and labels:
A549 [1] = assay: Induction of cell membrane disruption in human A549 cells assessed as LDH release at 3.1 uM incubated for 30 mins by fluorescence based assay relative to control
A549 [2] = assay: Induction of cell membrane disruption in human A549 cells assessed as LDH release at 3.25 uM incubated for 30 mins by fluorescence based assay relative to control
A549 [3] = assay: Induction of cell membrane disruption in human A549 cells assessed as shrunken morphology with membrane lysis at 4 uM incubated for 24 hrs by scanning electron microscopy; assay type: cell-based
A549 [4] = assay: Induction of cell membrane disruption in human A549 cells at 4 uM incubated for 1 hr by AO/EB staining based fluorescence microscopy
A549 [5] = assay: Induction of cell membrane disruption in human A549 cells at 4 uM incubated for 24 hrs by scanning electron microscopy; assay type: cell-based
A549 [6] = assay: Induction of apoptosis in human A549 cells assessed as early apoptotic cells level at 2 uM incubated for 24 hrs by Annexin-V-FITC/PI staining based analysis (reference value: 2.27%); assay type: functional
L02 = assay: Cytotoxicity in human L02 cells assessed as reduction in cell viability incubated for 24 hrs by CCK8 assay; assay type: cell-based; settings: L02, 24 h
HEK-293T = assay: Cytotoxicity in human HEK293T cells assessed as reduction in cell viability incubated for 24 hrs by CCK8 assay; assay type: cell-based; settings: Homo sapiens, HEK-293T
U-87 MG = assay: Cytotoxicity in human U87 cells assessed as reduction in cell viability incubated for 24 hrs by CCK8 assay; assay type: functional, cell-based, U-87MG ATCC
HeLa = assay: Cytotoxicity in human HeLa cells assessed as reduction in cell viability incubated for 24 hrs by CCK8 assay; assay type: functional, cell-based
MCF7 = assay: Cytotoxicity in human MCF7 cells assessed as reduction in cell viability incubated for 24 hrs by CCK8 assay; assay type: functional, cell-based; settings: MCF7, 24 h
SW-620 = assay: Cytotoxicity in human SW620 cells assessed as reduction in cell viability incubated for 24 hrs by CCK8 assay; assay type: functional, cell-based; settings: SW-620, 24 h
PC-3 = assay: Cytotoxicity in human PC3 cells assessed as reduction in cell viability incubated for 24 hrs by CCK8 assay; assay type: functional, cell-based; settings: PC-3, 24 h
A549 [7] = assay: Cytotoxicity in human A549 cells assessed as reduction in cell viability incubated for 24 hrs by CCK8 assay; assay type: functional, cell-based; settings: A549, 24 h
A549 [8] = assay: Potency index, ratio of IC50 for lycosin-I to IC50 for test compound for cytotoxicity in human A549 cells assessed as reduction in cell viability at 0.78 to 50 uM incubated for 24 hrs by CCK8 assay; assay type: functional
A549 [9] = assay: Cytotoxicity in human A549 cells assessed as reduction in cell viability by trypan blue staining method; assay type: functional, cell-based
A549 [10] = assay: Induction of apoptosis in human A549 cells assessed as late apoptotic cells level at 2 uM incubated for 24 hrs by Annexin-V-FITC/PI staining based analysis (reference value: 2.27%); assay type: functional
A549 [11] = assay: Induction of apoptosis in human A549 cells assessed as necrotic cells level at 2 uM incubated for 24 hrs by Annexin-V-FITC/PI staining based analysis (reference value: 2.27%); assay type: functional
A549 [12] = assay: Cytotoxicity in human A549 cells assessed as reduction in cell viability at 1.56 to 12.5 uM at 37 degC incubated for 24 hrs by CCK8 assay; assay type: functional, cell-based
A549 [13] = assay: Cytotoxicity in human A549 cells assessed as reduction in cell viability at 1.56 to 12.5 uM at 4 degC incubated for 24 hrs by CCK8 assay; assay type: functional, cell-based
A549 [14] = assay: Induction of apoptosis in human A549 cells assessed as induction of caspase-3 activation at 2 uM incubated for 24 hrs using Ac-DEVD-pNA substrate; assay type: functional, cell-based
A549 [15] = assay: Inhibition of colony formation n human A549 cells incubated for 15 days by crystal violet staining based assay; assay type: functional, cell-based
Homo sapiens = species: Homo sapiens; assay: Induction of cell membrane disruption in human erythrocytes cells assessed as induction of hemolysis at 0.098 to 50 uM incubated for 1 hr by fluorescence based assay relative to control; assay type: cell membranes
[16] = Stability in mouse serum at 100 uM incubated for 24 hrs at 37 degC by MALDI-TOF MS analysis; assay type: ADME, cell-free
A549 [17] = assay: Cytotoxicity in human A549 cells assessed as reduction in cell viability at 0.39 to 25 uM pre-incubated in presence of 10% FBS for 48 hrs and measured after 24 hrs by CCK8 assay; assay type: functional, cell-based
A549 [18] = assay: Cytotoxicity in human A549 cells assessed as reduction in cell viability at 1 uM incubated for 24 hrs by CCK8 assay; assay type: functional, cell-based
A549 [19] = assay: Anti-migration activity in human A549 cells incubated for 12 hrs by crystal violet staining based transwell migration assay; assay type: functional, cell-based
A549 [20] = assay: Anti-invasion activity in human A549 cells at 0.5 to 1 uM incubated for 12 hrs by crystal violet staining based Matrigel coated transwell invasion assay; assay type: functional, cell-based
A549 [21] = assay: Inhibition of spheroids growth in human A549 cells 3D tumor spheroids at 5 uM treated on day 0 and measured on day 5 by CCK8 assay; assay type: functional, cell-based
A549 [22] = assay: Inhibition of spheroids growth in human A549 cells 3D tumor spheroids assessed as induction of physical shrinking and peripheral collapse at 10 uM treated on day 0 and measured on day 5; assay type: functional, cell-based
A549 [23] = assay: Cytotoxicity in human A549 cells 3D tumor spheroids assessed as reduction in cell viability at 5 to 10 uM treated on day 0 and measured on day 5 by CCK8 assay; assay type: functional, cell-based
A549 [24] = assay: Anti-migration activity in human A549 cells 3D tumor spheroids assessed as reduction in cell migration at 2.5 to 10 uM incubated for 48 hrs by gelatin based 3D spheroid based metastasis assay; assay type: functional
B16-F10 [25] = assay: Cytotoxicity in mouse B16/F10 cells assessed as reduction in cell viability incubated for 24 hrs by CCK8 assay; assay type: functional, cell-based; settings: B16-F10, 24 h
B16-F10 [26] = assay: Antitumor activity in mouse B16/F10 cells implanted in BALB/C mouse assessed as inhibition of tumor growth at 10 mg/kg, ip dosed every other day for 10 days and measured every 2 days; assay type: functional, organism-based
[27] = Toxicity in mouse B16/F10 cells implanted BALB/C mouse assessed as effect on body weight at 10 mg/kg, ip dosed every other day for 10 days and measured every 5 days; assay type: organism-based; settings: in vivo
B16-F10 [28] = assay: Anti-metastasis activity in mouse B16/F10 cells implanted in BALB/C mouse assessed as inhibition of lung metastatic nodules at 8 mg/kg, ip dosed every other day for 10 days and measured every 2 days by H and E staining based assay; assay type: functional, organism-based
[29] = Toxicity in mouse B16/F10 cells implanted BALB/C mouse assessed as effect on body weight at 8 mg/kg, ip dosed every other day for 10 days and measured every 5 days; assay type: organism-based; settings: in vivo
B16-F10 [30] = assay: Anti-metastasis activity in mouse B16/F10 cells implanted in BALB/C mouse assessed as reduction in lung metastatic nodules at 8 mg/kg, ip dosed every other day for 10 days and measured every 2 days by H and E staining based assay; assay type: functional, organism-based
A549 [31] = assay: Inhibition of colony formation n human A549 cells up to 10 uM incubated for 15 days by crystal violet staining based assay; assay type: functional, cell-based
A549 [32] = assay: Induction of cell membrane disruption in human A549 cells assessed as LDH release at 25 uM incubated for 30 mins by fluorescence based assay relative to control
A549 [33] = assay: Anti-migration activity in human A549 cells at 0.5 to 1 uM incubated for 12 hrs by crystal violet staining based transwell migration assay; assay type: functional, cell-based
A549 [34] = assay: Inhibition of spheroids growth in human A549 cells 3D tumor spheroids at 10 to 20 uM treated on day 0 and measured on day 5 by CCK8 assay; assay type: functional, cell-based
A549 [35] = assay: Anti-migration activity in human A549 cells 3D tumor spheroids assessed as reduction in cell migration at 20 uM incubated for 48 hrs by gelatin based 3D spheroid based metastasis assay; assay type: functional

Compound	Activity (A549 [2])	Activity (A549 [4])	Activity (A549 [5])	Activity (A549 [6])	IC50 (L02)	IC50 (HEK-293T)	IC50 (U-87 MG)	IC50 (HeLa)	IC50 (MCF7)	IC50 (SW-620)	IC50 (PC-3)	IC50 (A549 [7])	Activity (A549 [10])	Activity (A549 [11])	Stability [16]	Activity (A549 [17])	Activity (A549 [20])	TGI (B16-F10 [26])	Activity [27]	inhibition (B16-F10 [28])	other results
CCCCCCCCCCCC(=O)N[C@@H](CCCCN)C(=O)NCC(=O)N[C@@H](Cc1c[nH]c2ccccc12)C(=O)N[C@@H](Cc1ccccc1)C(=O)N[C@@H](CCCCN)C(=O)N[C@@H](C)C(=O)N[C@@H](CCSC)C(=O)N[C@@H](CCCCN)C(=O)N[C@@H](CO)C(=O)N[C@H](C(=O)N[C@@H](C)C(=O)N[C@@H](CCCCN)C(=O)N[C@@H](Cc1ccccc1)C(=O)N[C@H](C(=O)N[C@@H](C)C(=O)N[C@@H](CCCCN)C(=O)N[C@@H](CCC(=O)O)C(=O)N[C@@H](CCCCN)C(=O)N[C@@H](CC(C)C)C(=O)N[C@@H](CCCCN)C(=O)N[C@@H](CCC(=O)O)C(=O)N[C@@H](Cc1cnc[nH]1)C(=O)N[C@@H](CC(C)C)C(=O)O)[C@@H](C)CC)[C@@H](C)CC (Lauroyl-KGWFKAMKSIAKFIAKEKLKEHL-OH)	59.4%	Active	Active	0.91%	3.9 µM	2.2 µM	1.9 µM	2.8 µM	1.7 µM	2 µM	2.2 µM	2.2 to 2.6 µM	10.88%	31.84%	Stable	Active	Dose-dependent effect	Active	Non-Toxic	Active	Activity (A549 [1]): 55%; Activity (A549 [3]): Active; Ratio IC50 (A549 [8]): 4 - 15; Activity (A549 [9]): Active; Activity (A549 [12]): Active; Activity (A549 [13]): inactive; Activity (A549 [14]): Active; inhibition (A549 [15]): Dose-dependent effect; Activity (Homo sapiens): Active; Activity (A549 [18]): inactive; Activity (A549 [19]): Dose-dependent effect; growth inhibition (GI) (A549 [21]): Active; growth inhibition (GI) (A549 [22]): Active; growth inhibition (GI) (A549 [23]): Active; Activity (A549 [24]): Active; IC50 (B16-F10 [25]): 2 µM; Activity [29]: Non-Toxic; inhibition (B16-F10 [30]): Active
H-KGWFKAMKSIAKFIAKEKLKEHL-OH	5.1%	inactive	inactive	0.48%	42.1 µM	27.9 µM	19.9 µM	26.3 µM	20.1 µM	13.7 µM	11 µM	22.9 µM	3.37%	1.97%	Unstable	inactive	inactive	inactive	Non-Toxic	inactive	inhibition (A549 [31]): inactive; Activity (A549 [32]): 37%; Activity (A549 [33]): inactive; growth inhibition (GI) (A549 [34]): inactive; Activity (A549 [35]): Active

Source: ChEMBL document CHEMBL4414655, “Position Effect of Fatty Acid Modification on the Cytotoxicity and Antimetastasis Potential of the Cytotoxic Peptide Lycosin-I” (J Med Chem, 2019)
